The test system of assay [1] is HLA-DR4 restricted mouse T cell hybridoma line (DR4.CII.36.8) with HLA-DRB1*04:01-expressing Boleth cells. Description: HLA-DR4-restricted peptide-specific T cell-based assay (hybridoma assay). Particulars: 6 h, inhibition of IL-2 production, CII259-273 peptide presented by Boleth cells. In outline:
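Boleth cells (HLA-DRB1*04:01 B cell line) pre-incubated with compound 1 h at 37° C. in DMEM/1% FCS, then DR4.CII.36.8 mouse T cell hybridoma (CII259-273-specific) added for 6 h with CII259-273 peptide. Supernatant mouse IL-2 by AlphaLISA; IC50 by 4-PL fit of 8-point duplicate titrations.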

Assay [2] deals with HLA-DRB1*0401 (Homo sapiens (Human), UniProt P01903+P01911, A100K/A169T/DEL228-266/F76Y/I96L/K127E/L162R/M171V/N62H/P40V/Q125Y/R42H/S133A/S149N/S66Y/V115G/V209L/W38E). Description: HLA-DR4 HTRF assay. In kind it is binding. Conditions: inhibition of loading of Alexa Fluor 647-labeled Cit-CII peptide onto HLA-DR4 (CLIP cleaved). In outline: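 HLA-DRB1*04:01 construct (α/β fused to human Fc, CLIP pre-cleaved by HRV3C overnight at 4° C) at 3 nM was preincubated 45 min with compound and 1 nM anti-Fc-Tb donor, then 40 nM Alexa647-Cit-CII1236-1249 peptide added. After 90 min at 37° C, the 665/620 nm HTRF ratio gave % inhibition; IC50 by nonlinear regression.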

Assay [3] has as its system human peripheral blood CD4+ helper T cells. Description: Pan-CD4+ T cell activation (off-target assay). In kind it is cell-based. Particulars: anti-CD3/anti-CD28 stimulation, IL-2 production by ELISA. From the text: The counter-screening was made through an HLA-DR-independent assay (Pan-CD4+ T cell activation assay), i.e., TCR-stimulated pan-T cell activation assay, and consists of activating T cell directly with agonistic antibody targeting the T cell receptor. The lack of inhibition in the counter-screening assay reflects that the inhibition of T cell activation in the HLA-DR4 restricted peptide-specific T cell based assay with the small molecule inhibitors is due to impaired antigen presentation on HLA-DR to the T cell and not due to a direct inhibition of the T cell function by an off-target mechanism (i.e., independently of targeting HLA-DR).
Pan-CD4+ T Cell Activation
Compounds were tested using a pan-T cell activation assay. In this assay, anti-human CD3 antibody (BD Pharmingen #55336) pre-coated at 1 μg/mL to a 96-well assay plate and 1 μg/ml soluble anti-human CD28 (EBioscience #16-0289-85) antibody were used for activating human peripheral blood CD4+ helper T cells (no HLA-DR-expressing APC were present in this assay format), in the presence of compounds (or vehicle control) for 24 hrs. IL-2 production was measured in the culture supernatant by ELISA (Human IL-2 Duo Set ELISA #DY202 from R&D Systems).
In general terms: ELISA stands for enzyme-linked immunosorbent assay.

The results in this text go back to patent US12516038B2, “Inhibitors of antigen presentation by HLA-DR” (Janssen Pharmaceutica NV, priority 2020, dated 2026).

On to `COc1cnccc1[C@@H](Oc1ccc2c(c1)OCCC2=O)c1ccc(C(N)=O)cc1` (single isomer, unassigned) [Example 23b, (*S)-4-((3-methoxypyridin-4-yl)((4-oxochroman-7-yl)oxy)methyl)benzamide], for which the IC50 in assay [1] (Mus musculus, T-cell) is 5 µM; in assay [2], 0.68 µM; in assay [3] (Homo sapiens, T-cell, 24 h), over 15 µM.
Turning to `COc1cc([C@H](Oc2ccc3c(c2)OCCC3=O)c2ccc(C(N)=O)cc2)ccn1` (single isomer, unassigned) [Example 24a, (*R)-4-((2-methoxypyridin-4-yl)((4-oxochroman-7-yl)oxy)methyl)benzamide], the IC50 in assay [1] (Mus musculus, T-cell) was 5.1 µM; in assay [2], 1.4 µM; in assay [3] (Homo sapiens, T-cell, 24 h) it was over 15 µM.
The matching figures for `COc1cc([C@@H](Oc2ccc3c(c2)OCCC3=O)c2ccc(C(N)=O)cc2)ccn1` (single isomer, unassigned) [Example 24b, (*S)-4-((2-methoxypyridin-4-yl)((4-oxochroman-7-yl)oxy)methyl)benzamide]: 2.7 µM, 1.2 µM and 4.7 µM.
In the case of `NC(=O)c1ccc([C@H](Oc2ccc3c(c2)OCCC3=O)c2ccncc2-c2ccccc2)cc1` (single isomer, unassigned) [Example 25b, (*S)-4-(((4-oxochroman-7-yl)oxy)(3-phenylpyridin-4-yl)methyl)benzamide], the IC50 in assay [1] (Mus musculus, T-cell) is 4.5 µM; in assay [2], 0.49 µM; in assay [3] (Homo sapiens, T-cell, 24 h), 3.2 µM.
The matching figures for `NC(=O)c1ccc([C@@H](Oc2ccc3c(c2)OCCC3=O)c2ccnc(-c3ccccc3)c2)cc1` (single isomer, unassigned) [Example 26a, (*R)-4-(((4-oxochroman-7-yl)oxy)(2-phenylpyridin-4-yl)methyl)benzamide]: 1.1 µM, 64 µM and over 15 µM.
The matching figures for `NC(=O)c1ccc([C@H](Oc2ccc3c(c2)OCCC3=O)c2ccnc(-c3ccccc3)c2)cc1` (single isomer, unassigned) [Example 26b, (*S)-4-(((4-oxochroman-7-yl)oxy)(2-phenylpyridin-4-yl)methyl)benzamide]: 1.6 µM, 88 µM and 15 µM.
With `NC(=O)c1ccc([C@H](Oc2ccc3c(c2)OCCC3=O)c2ccnc(N)c2)cc1` (single isomer, unassigned) [Example 28b, (*S)-4-((2-aminopyridin-4-yl)((4-oxochroman-7-yl)oxy)methyl)benzamide], the IC50 in assay [1] (Mus musculus, T-cell) is 3.5 µM; in assay [2] it was 1.7 µM; in assay [3] (Homo sapiens, T-cell, 24 h) it was over 15 µM.
The matching figures for `NC(=O)c1ccc([C@H](Oc2ccc3c(c2)OCCC3=O)c2ccccc2)cc1` (single isomer, unassigned) [Example 29a, (*R)-4-(((4-oxochroman-7-yl)oxy)(phenyl)methyl)benzamide]: 2.3 µM, 1.1 µM and over 15 µM.
The matching figures for `NC(=O)c1ccc([C@@H](Oc2ccc3c(c2)OCCC3=O)c2ccccc2)cc1` (single isomer, unassigned) [Example 29b, (*S)-4-(((4-oxochroman-7-yl)oxy)(phenyl)methyl)benzamide]: 5 µM, 0.96 µM and over 15 µM.
The matching figures for `NC(=O)c1ccc([C@@H](Oc2ccc3c(c2)OCCC3=O)c2cccnc2)cc1` (single isomer, unassigned) [Example 31a, (*R)-4-(((4-oxochroman-7-yl)oxy)(pyridin-3-yl)methyl)benzamide]: 5.5 µM, 0.85 µM and 15 µM.
With `NC(=O)c1ccc([C@@H](Oc2ccc3c(c2)OCCC3=O)c2cccnc2)cc1` (single isomer, unassigned) [Example 31b, (*S)-4-(((4-oxochroman-7-yl)oxy)(pyridin-3-yl)methyl)benzamide], the results for the IC50 in assay [1], in assay [2] and in assay [3] (24 hrs) were 3.5 µM, 0.64 µM and over 15 µM, respectively.
Regarding `CNC(=O)c1ccc([C@@H](Oc2ccc3c(c2)OCCC3=O)c2ccncc2)cc1` (single isomer, unassigned) [Example 34a, (*R)—N-methyl-4-(((4-oxochroman-7-yl)oxy)(pyridin-4-yl)methyl)benzamide], the IC50 in assay [1] (Mus musculus, T-cell) amounted to 12 µM; in assay [2] it was 0.8 µM; in assay [3] (Homo sapiens, T-cell, 24 h), 9.9 µM.
Turning to `CNC(=O)c1ccc([C@H](Oc2ccc3c(c2)OCCC3=O)c2ccncc2)cc1` (single isomer, unassigned) [Example 34b, (*S)—N-methyl-4-(((4-oxochroman-7-yl)oxy)(pyridin-4-yl)methyl)benzamide], the IC50 in assay [1] (Mus musculus, T-cell) was over 15 µM; in assay [2], 0.69 µM; in assay [3] (Homo sapiens, T-cell, 24 h) it was over 15 µM.
Take `Cc1cc(C(N)=O)ccc1[C@H](Oc1ccc2c(c1)OCCC2=O)c1ccncc1` (single isomer, unassigned) [Example 36a, (*R)-3-methyl-4-(((4-oxochroman-7-yl)oxy)(pyridin-4-yl)methyl)benzamide]: the IC50 amounted to 4.8 µM in assay [1] (Mus musculus, T-cell); 0.55 µM in assay [2]; 4.7 µM in assay [3] (Homo sapiens, T-cell, 24 h).
The corresponding values for `N#Cc1ccc([C@H](Oc2ccc3c(c2)OCCC3=O)c2ccncc2)c2ccccc12` (single isomer, unassigned) [Example 37a, (*R)-4-(((4-oxochroman-7-yl)oxy)(pyridin-4-yl)methyl)-1-naphthonitrile] are 9.3 µM, 33 µM and 2 µM.
The matching figures for `N#Cc1ccc([C@@H](Oc2ccc3c(c2)OCCC3=O)c2ccncc2)c2ccccc12` (single isomer, unassigned) [Example 37b, (*S)-4-(((4-oxochroman-7-yl)oxy)(pyridin-4-yl)methyl)-1-naphthonitrile]: 5.1 µM, 24 µM and 9.9 µM.
The corresponding values for `O=C1CCOc2cc(O[C@@H](c3ccncc3)C3CCCCC3)ccc21` (single isomer, unassigned) [Example 38a, (*R)-7-(cyclohexyl(pyridin-4-yl)methoxy)chroman-4-one] are 4 µM, 4.6 µM and 4.7 µM.
For `O=C1CCOc2cc(O[C@H](c3ccncc3)C3CCCCC3)ccc21` (single isomer, unassigned) [Example 38b, (*S)-7-(cyclohexyl(pyridin-4-yl)methoxy)chroman-4-one], the IC50 was 5.5 µM in assay [1] (Mus musculus, T-cell); 4.1 µM in assay [2]; over 15 µM in assay [3] (Homo sapiens, T-cell, 24 h).
The corresponding values for `C[C@@H]1CC(=O)c2ccc(O[C@@H](c3ccncc3)c3ccc(C(N)=O)cc3)cc2O1` (single isomer, unassigned) [Example 39b, 4-((*R)—(((*R)-2-Methyl-4-oxochroman-7-yl)oxy)(pyridin-4-yl)methyl)benzamide] are 0.6 µM, 0.85 µM and 9.9 µM.
As to `C[C@H]1CC(=O)c2ccc(O[C@@H](c3ccncc3)c3ccc(C(N)=O)cc3)cc2O1` (single isomer, unassigned) [Example 39c, 4-((*R)—(((*S)-2-Methyl-4-oxochroman-7-yl)oxy)(pyridin-4-yl)methyl)benzamide], the IC50 in assay [1] (Mus musculus, T-cell) was determined as 1.1 µM; in assay [2], 0.99 µM; in assay [3] (Homo sapiens, T-cell, 24 h) it was 9.9 µM.
The corresponding values for `CC[C@@H]1CC(=O)c2ccc(O[C@@H](c3ccncc3)c3ccc(C(N)=O)cc3)cc2O1` (single isomer, unassigned) [Example 40a, 4-((*R)—(((*R)-2-ethyl-4-oxochroman-7-yl)oxy)(pyridin-4-yl)methyl)benzamide] are 0.76 µM, 1.5 µM and 15 µM.
The corresponding values for `CC[C@H]1CC(=O)c2ccc(O[C@@H](c3ccncc3)c3ccc(C(N)=O)cc3)cc2O1` (single isomer, unassigned) [Example 40b, 4-((*R)—(((*S)-2-ethyl-4-oxochroman-7-yl)oxy)(pyridin-4-yl)methyl)benzamide] are 1 µM, 1.3 µM and 15 µM.

As usually defined, the IC50 is the concentration at which inhibition is half-maximal. Read a low IC50 as higher potency.
